Data on one compound can be found in patent publication US6806257B1, “Flavones as inducible nitric oxide synthase inhibitors, cyclooxygenase-2 inhibitors and potassium channel activators” (priority 1999, dated 2004).

Entries after “also recorded” stand apart in the source; their conditions may differ.

Experiment [1] concerns LPS-induced NO production in RAW264.7 macrophages. Kind of experiment: LPS-induced nitrite (NO) production in RAW264.7 macrophages, Griess reaction. The class given is cell-based, mouse. The conditions noted are these: 5, 10 or 20 μg/ml together with 100 ng/ml LPS for 24 hours. As to the method:
(§1) Cells. RAW264.7, a mouse macrophage cell line, was obtained from American Type Culture Collection. Cells were cultured in RPMI-1640 medium (available from Gibco Life Technology, in Gaithersburg, Md.) supplemented with 2 mM L-glutamine, antibiotics (100 units/ml penicillin-A and 100 units/ml streptomycin) and 10% heat-inactivated fetal bovine serum (Gibco/BRL) and maintained at 37° C in a humidified incubator containing 5% CO2.
Nitrite assay. The nitrite concentration in the medium was measured as an indicator of NO production according to the Griess reaction (Kim et al., J. Immunol. 153: 4741-4748). One hundred microliters of each supernatant was. mixed with the same volume of Griess reagent (1% sulfanilamide in 5% phosphoric acid and 0. 1% naphthylethylenediamine dihydrochloride in water); absorbency of the mixture at 550 nm was determined with an enzyme-linked immunosorbent assay plate reader (Dynatech MR-7000; Dynatech Labs, Chantilly, Va.).
The effects of flavonoids, ellagitannins, anthraquinones on LPS-induced NO production in macrophages were studied as follows. The chemical structures of two flavonoids (myricitrin, N1; oroxylin A, N2) four ellagitannins (penta-O-galloyl-β-glucopyranose, N3; woodfordin C, N4; onothein B, N5; cuphiin, N6), and two anthraquinones (emodin, N7; physcion, N8) that were used in the present study were shown in FIG. 1. The effects of these eight compounds on NO production in RAW264.7 macrophages were investigated. The accumulated nitrite in the culture medium was used as an index for NO synthesis from these cells. […]
A general note: Nitrite, measured by Griess reagent, commonly stands in for NO production.

The subject of experiment [2] is iNOS. The experiment in a line: LPS-induced iNOS expression in RAW264.7 macrophages (western/northern blot). The class given is cell-based, mouse. Here is the method:
as §1
(§2) Western blots. Total cellular extract, cytosolic fractions (for IkB) and nuclear fraction (for p65 antibody) were prepared according to Muller et al., Immunobiology, 187, 233-256, 1993 and separated on sodium dodecyl sulfatepolyacrylamide minigels (8% for iNOS or COX-2, and 10% for IkB or p65) and transferred to immobilon polyvinylidene difluoride membranes (Millipore, Bedford, Mass.). The membrane was incubated overnight at 4° C. with 1% bovine serum albumin and then incubated with anti-iNos, COX-2, α-Tubulin monoclonal antibodies (Transduction Laboratories, Lexington, Ky.), anti-IkB or anti-p65 polyclonal antibodies (Santa Cruz Biochemicals, Santa Cruz, Calif.). iNOS, IkB, p65, Cox-2, α-Tubulin were detected by NBT and BCIP staining (Sigma Chemical Co., St. Louis, Mo.).
Northern blot analysis. Total RNA (20 μg/lane) were separated by electrophoresis on 1.2% agarose gel containing 6.7% formaldehyde and transformed to a Hybond-N nylon membrane (American Life Science) in 20×standard saline citrate (3 M sodium chloride and 0.3 M sodium citrate, pH 7.0). After heating at 80° C. for 2 hours and prehybridization for 4 hours, the filters were hybridized with ^32P-labeled murine iNOS cDNA probes at a concentration of 3×10^6 cpm/ml for 16-18 hours at 42° C. The probe was labeled with [α-32P] dCTP by using Random Primer labeling kit (Stratagene, La Jolla, Calif.). Then, the filters were washed, dried and autoradiographed with Kodak-X-Omat XAR-film using intensifying screens at −80° C.

Experiment [3] relates to NF-kB (p65) / IkB. Kind of experiment: Nuclear p65 / cytosolic IkB western blot in LPS-treated RAW264.7 macrophages. The conditions noted are these: 20 μg/ml, 100 ng/ml LPS for 30 minutes. The class given is cell-based, mouse. As to the method:
as §2
NF-kB is a transcription factor that is activated in response to stimulation by LPS, and activation of NF-kB is an essential factor in inducing iNOS gene expression in macrophages (Kim, Y. M., Biochem. Biophys. Res. Commun. 236, 655-660, 1997). To assess the effect of these compounds (20 μg/ml) on early stage of iNOS gene expression, the activation of NF-kB in RAW264.7 macrophages was examined using the electrophoretic mobility shift assay (EMSA) (FIGS. 6i and 6ii).

Experiment [4] relates to iNOS. Kind of experiment: iNOS expression in cultured primary smooth muscle cells from porcine cerebral arteries (immunostaining, Western blot). The format is cell-based. Here is the method: Culture of smooth muscle cells. The entire brain with dura attached was removed and placed in ice-cold sterile phosphate-buffered saline (PBS) (140 mM NaCl, 4 mM KCl, 1 mM KH2PO4, pH 7.4) containing antibiotics (100 U/ml penicillin G potassium, 100 μg/ml streptomycin sulfate, and 0.25 μg/ml fungizone) (Fisher Scientific, Springfield, N.J.). The arteries of the circle of Willis were removed and cleaned of surrounding tissue under a dissecting microscope. The arteries were then placed on a sterile petri dish and sliced longitudinally. The luminal surface was rubbed with a sterile cotton swab to remove endothelial cells. The vessels were placed in DMEM (Dulbecco's Modified Eagle Medium, Life Technologies, Grand Island, N.Y.) containing antibiotics and stored overnight at 4° C. The vessels were cut into approximately 2×2-mm explants, placed in a 10 cm petri dish, covered with DMEM containing antibiotics plus 20% FBS (fetal bovine serum, Sigma Chemical Co., St Louis, Mo.), and placed in an incubator in an atmosphere of 5% CO2 in air at 37° C. […]
Western blots. […] Expression of iNOS was detected by NBT and BCIP staining (Sigma Chemical Co., St. Louis, Mo.).
Photomicrographs of immunofluorescence at 20× were immediately taken with an Olympus fluorescence microscope fitted with an FITC filter. […]
(In western blotting, separated proteins are transferred to a membrane and probed.)

For the compound `COc1c(O)cc2oc(-c3ccccc3)cc(=O)c2c1O` [oroxylin A, 5,7-dihydroxy-6-methoxy flavone], in experiment [1], the LPS-induced nitrite production entry was “significant inhibition”. The “blocking LPS-induced iNOS gene expression, comparison among compounds tested” value in experiment [2] is listed as “most potent among the compounds tested”. Besides, the “LPS-induced iNOS protein” value in experiment [2] (100 ng/ml LPS, western blot) is given as “inhibited LPS-induced iNOS protein in a concentration-dependent manner”. The “LPS-induced increase of nuclear p65 and decrease of cytosolic IkB” value in experiment [3] was “significantly inhibited”. Also, the “LPS-induced iNOS-immunoreactive cultured smooth muscle cells” value in experiment [4] (LPS 10 μg/ml 20 hours, concomitant 60 μM) is “drastically decreased; also recorded: inhibition”. For the same compound, the “LPS-induced iNOS proteins, Western blot” value in experiment [4] (LPS 10 μg/ml, 30 μM and 60 μM) is given as “decreased by oroxylin A in a concentration-dependent manner”.
